Measurements: patent publication US20130072714A1, “BIOBASED COMPOSITIONS OF DIAMMONIUM SUCCINATE, MONOAMMONIUM SUCCINATE AND/OR SUCCINIC ACID AND DERIVATIVES THEREOF” (BioAmber International S.à.r.l., priority 2011, published 2013)
Entries after “also recorded” stand apart in the source; their conditions may differ.

Experiment: Heated color test: SA plus 1,4-butanediol with trace glucose and/or alanine, 180° C., visual inspection
Type: physicochemical
Conditions: 1.0 gram 1,4-butanediol plus 0.5 gram SA, 2 hours
Description: Glass vials were charged with 1,4-butanediol, pure SA, and trace levels of either glucose, alanine, or both. The vials were heated at 180° C. for 2 hours and any color changes observed by visual inspection. [table]

| SMILES | color change on heating, two impurities (glucose 5 ppm, alanine 5 ppm) | color change on heating, two impurities (glucose 5 ppm, alanine 50 ppm) | color change on heating, two impurities (glucose 5 ppm, alanine 500 ppm) | color change on heating, two impurities (glucose 50 ppm, alanine 5 ppm) | color change on heating, two impurities (glucose 50 ppm, alanine 50 ppm) | color change on heating, two impurities (glucose 50 ppm, alanine 500 ppm) | color change on heating, two impurities (glucose 500 ppm, alanine 5 ppm) | color change on heating, two impurities (glucose 500 ppm, alanine 50 ppm) | color change on heating, two impurities (glucose 500 ppm, alanine 500 ppm) | color change on heating, single impurity (impurity 10 ppm) | color change on heating, single impurity (impurity 100 ppm) | color change on heating, single impurity (impurity 1000 ppm) |
| --- | --- | --- | --- | --- | --- | --- | --- | --- | --- | --- | --- | --- |
| O=C(O)CCC(=O)O [SA, succinic acid] | No color | yellow color; also recorded: Slight | Slight | No color | Slight | Light | No color | Slight | Light | – | – | – |
| C[C@H](N)C(=O)O [Alanine, alanine] | – | – | – | – | – | – | – | – | – | No color | No color | Slight yellow |
